This note sets out measurements from ChEMBL document CHEMBL4049382, “4-Hydroxyphenylpyruvate Dioxygenase and Its Inhibition in Plants and Animals: Small Molecules as Herbicides and Agents for the Treatment of Human Inherited Diseases” (J Med Chem, 2017).

Series [1] addresses T1, 4-hydroxyphenylpyruvate dioxygenase (Arabidopsis thaliana, UniProt P93836).
T1 sequence (P93836 whole entry): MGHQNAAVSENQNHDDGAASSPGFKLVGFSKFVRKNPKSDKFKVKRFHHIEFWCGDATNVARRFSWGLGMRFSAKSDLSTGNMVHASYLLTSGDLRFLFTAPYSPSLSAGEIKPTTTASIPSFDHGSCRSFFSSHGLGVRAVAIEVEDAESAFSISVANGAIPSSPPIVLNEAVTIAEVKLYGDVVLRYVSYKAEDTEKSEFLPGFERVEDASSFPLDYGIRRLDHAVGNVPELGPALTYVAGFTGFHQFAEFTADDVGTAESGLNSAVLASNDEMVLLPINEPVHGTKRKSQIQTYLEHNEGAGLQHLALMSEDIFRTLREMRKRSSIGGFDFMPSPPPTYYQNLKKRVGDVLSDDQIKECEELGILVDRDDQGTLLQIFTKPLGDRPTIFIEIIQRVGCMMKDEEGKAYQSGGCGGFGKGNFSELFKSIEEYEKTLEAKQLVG
The experiment in a line: Inhibition of Arabidopsis thaliana HPPD expressed in Escherichia coli JM105 using HPPA as substrate after preincubated for 15 min followed by substrate addition by HPLC analysis.

In series [2] the test system is Plasmodium falciparum. Nature of the series: Antiparasitic activity against chloroquine-sensitive Plasmodium falciparum. The series is classed as functional.
The test system of series [3] is Plasmodium falciparum. Nature of the series: Antiparasitic activity against chloroquine-resistant Plasmodium falciparum. The series is classed as functional.
The target of series [4] is T1, 4-hydroxyphenylpyruvate dioxygenase. The experiment in a line: Inhibition of Arabidopsis thaliana HPPD expressed in Escherichia coli BL21(DE3) using HPPA as substrate after 10 mins by UV-Vis spectrometric analysis.
Series [5] has the same target. Nature of the series: Inhibition of Arabidopsis thaliana HPPD expressed in Escherichia coli JM109 using HPPA as substrate after 10 mins.
For series [6], the species on record is Homo sapiens. Nature of the series: Inhibition of TAT in human Fibroblasts assessed as reduction in tyrosine level at 10 uM after 72 hrs by LC-MS/MS analysis relative to control.
For series [7], the system named is Homo sapiens. Nature of the series: In vivo inhibition of HPPD in human assessed as blood tyrosine levels at 4 mg/kg measured up to 120 hrs. The series is classed as functional.
Series [8] can be described thus: Half life in human plasma at 1 mg/kg administered as solution. The series is classed as ADME, organism-based.
Series [9] can be described thus: Half life in human plasma at 1 mg/kg administered as capsule. The series is classed as ADME, organism-based. The following applies: po.
The target of series [10] is T1, 4-hydroxyphenylpyruvate dioxygenase. Nature of the series: Inhibition of Arabidopsis thaliana HPPD expressed in Escherichia coli JM105 using 4-HPP as substrate preincubated for 15 mins followed by substrate addition measured after 15 mins by HPLC analysis.
The target in series [11] is T2, 4-hydroxyphenylpyruvate dioxygenase (Arabidopsis thaliana) (UniProt P93836).
T2 sequence (whole entry): T1 sequence (P93836 whole entry)
The experiment in a line: Inhibition of Arabidopsis thaliana HPPD.

Series [12] is filed under the species Homo sapiens. Nature of the series: Inhibition of TAT in human Fibroblasts assessed as reduction in tyrosine level at 0.1 uM after 72 hrs by LC-MS/MS analysis relative to control.
Another series has as its system Fibroblast. Nature of the series: Cytotoxicity against human Fibroblast assessed as reduction in cell viability after 24 to 144 hrs by MTT assay. Background: Tetrazolium dyes change colour on reduction, which living cells bring about.
Series [13] has as its target T3, 4-hydroxyphenylpyruvate dioxygenase (Sus scrofa, UniProt Q02110). The experiment in a line: Inhibition of pig liver HPPD using HPP as substrate after 15 mins.
The test system of series [14] is Rattus norvegicus. Nature of the series: In vivo inhibition of HPPD activity in rat assessed as micoL of O2 consumed in liver cytosol at 0.1 to 5 mg/kg/day measured after 90 days (reference value: 91%). The format is functional.
For series [15], the system named is Rattus norvegicus. The experiment in a line: In vivo inhibition of TAT activity in rat assessed as 4-hydroxyphenylpyruvate formed in liver cytosol at 50 to 100 mg/kg/day measured after 90 days relative to control. The format is functional.
The subject of series [16] is Rattus norvegicus. The experiment in a line: In vivo inhibition of HGD activity in rat assessed as micoL of O2 consumed in liver cytosol at 5 to 100 mg/kg/day measured after 90 days relative to control. The format is functional.
The target in series [17] is T3, 4-hydroxyphenylpyruvate dioxygenase. Nature of the series: Inhibition of pig liver HPPD using 4-hydroxyphenylpyruvic acid as substrate after 15 mins by spectrophotometric analysis.
Series [18] has as its target T4, 4-hydroxyphenylpyruvate dioxygenase (Daucus carota, UniProt O23920).
T4 sequence (O23920 whole entry): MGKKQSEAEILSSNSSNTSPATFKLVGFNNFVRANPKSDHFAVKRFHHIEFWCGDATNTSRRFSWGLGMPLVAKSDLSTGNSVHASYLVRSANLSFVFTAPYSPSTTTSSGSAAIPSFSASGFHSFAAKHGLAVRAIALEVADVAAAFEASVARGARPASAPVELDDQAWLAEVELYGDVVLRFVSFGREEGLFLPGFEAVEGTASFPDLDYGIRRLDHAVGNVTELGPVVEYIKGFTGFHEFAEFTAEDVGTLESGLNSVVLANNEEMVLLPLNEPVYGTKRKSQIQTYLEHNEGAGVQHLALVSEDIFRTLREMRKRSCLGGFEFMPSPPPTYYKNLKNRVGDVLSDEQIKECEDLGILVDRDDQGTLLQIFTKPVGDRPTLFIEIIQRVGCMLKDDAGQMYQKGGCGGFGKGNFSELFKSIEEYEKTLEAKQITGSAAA
The experiment in a line: Inhibition of carrot HPPD expressed in Escherichia coli JM105 using HPPA as substrate.

In series [19] the target is T5, 4-hydroxyphenylpyruvate dioxygenase (Daucus carota) (UniProt O23920).
T5 sequence (whole entry): T4 sequence (O23920 whole entry)
Nature of the series: Inhibition of carrot HPPD expressed in Escherichia coli JM105 assessed as dissociation half life using HPPA as substrate.

The subject of series [20] is Rattus norvegicus. Nature of the series: In vivo inhibition of Tyr hydroxylase in rat assessed as tyr concentration in plasma by colorimetric assay (reference value: 0.1 mM). The format is functional.
In series [21] the test system is Homo sapiens. The experiment in a line: In vivo inhibition of HPPD in human assessed dissociation half life for enzyme-compound complex in plasma. The format is functional, organism-based.
Series [22] has as its system Homo sapiens. Nature of the series: Effect on tyrosine level in plasma in human at 1 mg/kg, po under uncontrolled diet (reference value: 0.076 mM). The format is ADME, organism-based. The following applies: in vivo.
In series [23] the target is 4-hydroxyphenylpyruvate dioxygenase (Rattus norvegicus) (UniProt P32755). The following applies: Wistar, 50 nM.
Chain of 4-hydroxyphenylpyruvate dioxygenase (Rattus norvegicus) (P32755 whole entry): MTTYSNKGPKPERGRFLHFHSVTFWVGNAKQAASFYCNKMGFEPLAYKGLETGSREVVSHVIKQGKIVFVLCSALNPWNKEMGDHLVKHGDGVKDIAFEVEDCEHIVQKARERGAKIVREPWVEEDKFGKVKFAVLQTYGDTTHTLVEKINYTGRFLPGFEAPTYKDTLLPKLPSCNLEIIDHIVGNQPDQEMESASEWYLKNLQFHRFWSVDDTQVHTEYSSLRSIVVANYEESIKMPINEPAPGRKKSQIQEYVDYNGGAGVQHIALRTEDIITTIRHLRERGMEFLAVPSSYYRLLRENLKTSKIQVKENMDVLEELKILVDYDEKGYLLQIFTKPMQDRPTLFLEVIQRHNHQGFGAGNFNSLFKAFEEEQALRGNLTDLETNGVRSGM
Description: Inhibition of Wistar rat liver HPPD using 4-Hydroxyphenylpyruvate as substrate assessed as reduction in oxygen consumption at 50 nM preincubated for 3 mins followed by substrate addition measured after 30 secs
For series [24], the species on record is Rattus norvegicus.
Description: In vivo inhibition of HPPD in rat assessed dissociation half life for enzyme-compound complex in plasma
The nature of series [25]: Half life in human plasma at 1 mg/kg.
Series [26] is described as follows: In vitro half life of rat HPPD complex.
Series [27] has as its system Homo sapiens. The experiment in a line: Effect on tyrosine level in plasma in human at 1 mg/kg, po up to 120 hrs (reference value: 0.076 mM). As to conditions: in vivo.

Structures are written as SMILES. Bounds are passed on as bounds.

T3 sequence (Q02110 whole entry): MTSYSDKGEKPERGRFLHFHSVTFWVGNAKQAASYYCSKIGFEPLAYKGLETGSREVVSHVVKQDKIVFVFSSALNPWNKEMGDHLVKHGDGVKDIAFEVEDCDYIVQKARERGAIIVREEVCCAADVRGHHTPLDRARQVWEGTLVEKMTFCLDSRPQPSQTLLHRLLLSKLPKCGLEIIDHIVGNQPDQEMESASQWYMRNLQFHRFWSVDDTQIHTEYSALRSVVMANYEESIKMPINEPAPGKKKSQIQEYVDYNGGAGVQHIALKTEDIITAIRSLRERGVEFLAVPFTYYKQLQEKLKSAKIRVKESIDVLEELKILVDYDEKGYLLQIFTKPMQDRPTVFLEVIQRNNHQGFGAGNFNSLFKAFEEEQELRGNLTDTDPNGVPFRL

One may read the IC50 as the concentration needed to halve the response being measured. Higher therefore signals weaker potency in that assay. In the case of `O=C1C[C@@H](c2ccccc2)Oc2cc(O)cc(O)c21` [PINOCEMBRIN], the IC50 in series [1] was determined as 73000 nM. This lies in the double-digit micromolar range.
On to `Cc1c(O)c(C(=O)CCc2ccccc2)c2c(c1O)[C@@H]1C3=C(O[C@]1(C(C)C)O2)C(C)(C)C(=O)C(C)(C)C3=O`, for which the IC50 in the series on Plasmodium falciparum [2] is 400 nM; in the series on Plasmodium falciparum [3], 300 nM.
One may read the Ki as a measure of affinity in units of concentration, obtained from inhibition or displacement. A higher Ki goes with a looser hold on the target. In series [4], `Cc1nc2c(C)cccc2cc1C(=O)C1C(=O)CCCC1=O` showed a Ki of 7 to 9 nM.
`O=C1CCCC(=O)C1C(=O)COc1ccc(Cl)cc1`: in series [5], the Ki lay within 31 to 37 nM.
In general, inhibition refers to the change of the read-out against control, counted positive when it falls. What is called half-life is how long it takes for the measured level to halve. A higher half-life goes with slow loss. With `CS(=O)(=O)c1ccc(C(=O)C2C(=O)CCCC2=O)c([N+](=O)[O-])c1` [MESOTRIONE], in the series listed under Homo sapiens [6], the inhibition amounted to 14%. Further, the Activity in the series on Homo sapiens [7] is reported as less than 0.5 mM. Besides, the half-life in [8] and in series [9] was 1 h each time.
`CCCCCCCCCC(=O)C1C(=O)C(C)(C)C(=O)C(C)(C)C1=O` returned an IC50 in series [10] of 19 nM.
`CC(=O)C1=C(O)C=C2Oc3c(C(C)=O)c(O)c(C)c(O)c3[C@@]2(C)C1=O` [(+)-USNIC ACID] yielded a half-inhibitory concentration (IC50) in series [1] of 70 nM.
`Cc1ccccc1OCC(=O)C1C(=O)CCCC1=O` had a Ki in [5] of 31 to 37 nM.
Turning to `CC(C)CC(=O)C1C(=O)C(C)(C)C(=O)C(C)(C)C1=O`, inhibition in series [10] was half-maximal at 11800 nM (IC50).
In series [4], `Cc1cccc2cc(C(=O)C3C(=O)CCCC3=O)c(C#N)nc12` registered a Ki of 7 to 9 nM.
With `Cc1c(C(=O)c2cn[nH]c2O)ccc(S(C)(=O)=O)c1C1=NOCC1`, the INH in [11] came out at 600 nM.
`CC1(C)C(=O)C(C(=O)CCc2ccccc2)C(=O)C(C)(C)C1=O`: half-maximal inhibition in series [10] (IC50) required 750 nM.
Turning to `CC1(C)CC(=O)C(C(=O)c2ccc([N+](=O)[O-])cc2Cl)C(=O)C1`, the inhibition in the series filed under Homo sapiens [12] came to 7%. Moreover, in the series with Fibroblast, the Activity is given as more than 1 mM.
In turn, `O=C1CCCC(=O)C1C(=O)COc1ccccc1Cl` showed a Ki in series [5] of 31 to 37 nM.
The same measure, in the same setting: next, `O=C1CCCC(=O)C1C(=O)COc1ccc([N+](=O)[O-])cc1`: 31 to 37 nM.
In the case of `COc1nc2c(C)cccc2cc1C(=O)C1C(=O)CCCC1=O`, the Ki in series [4] is 7 to 9 nM.
Same read-out and setting: the value for `COc1nc2c(C)cccc2cc1C(=O)C1C(=O)CC(C)CC1=O` (stereo unspecified) was 7 to 9 nM.
Consider `O=C(O)C(O)(O)C(F)c1ccccc1` (stereo unspecified), for which inhibition in [13] was half-maximal at 10000 nM (IC50).
Consider `CS(=O)(=O)c1ccc(C(=O)C2C(=O)CCCC2=O)c(Cl)c1` [SULCOTRIONE], for which the results for the “inhibition (INH)” value in the series with Rattus norvegicus [14], in the series on Rattus norvegicus [15] and in the series with Rattus norvegicus [16] were 96%, 43 - 175% and 29 - 46%, respectively.
`O=C1CCCCC1C(=O)c1ccccc1[N+](=O)[O-]` (stereo unspecified) displayed an IC50 in [17] of 700 nM.
On the same count and under the same terms, next, `O=C1CCCC(OC(=O)C2CC2)=C1Cl`: 15 nM.
Turning to `O=C1CCCC(=O)C1Cc1ccccc1[N+](=O)[O-]`, the IC50 in series [17] came to 126000 nM. Compared with the last molecule, the IC50 is about 8400-fold higher.
Regarding `Cc1cccc2cc(C(=O)C3C(=O)CC(C)CC3=O)c(C#N)nc12` (stereo unspecified), the Ki in [4] lay within 7 to 9 nM.
In [5], `CS(=O)(=O)c1ccc(C(=O)C2C(=O)CCCC2=O)c(Cl)c1COCC(F)(F)F` [TEMBOTRIONE] registered a Ki of 13 nM.
Regarding `O=C1CCCC(OC(=O)C2CC2)=C1Br`, in series [17], 28 nM corresponded to half-maximal inhibition (IC50).
Consider `Cc1cc(C2C(=O)C(C(=O)c3ccc(Cl)cc3)C(=O)CC2(C)C)on1` (stereo unspecified), for which the Activity with Fibroblast is more than 1 mM.
For the molecule `CCn1c(=O)n(-c2ccccc2C)c(=O)c2cc(C(=O)C3C(=O)CCCC3=O)ccc21`, the affinity in series [4], expressed as Ki, was 5 nM.
In general, Kd refers to the equilibrium constant for the complex coming apart. Lower therefore signals tighter binding. In turn, `CS(=O)(=O)c1cc(C(F)(F)F)ccc1C(=O)C(C#N)C(=O)C1CC1` (stereo unspecified) had a Kd in series [18] of 6 nM. The T1/2 in series [19] came out at 2 h.
Take `Cc1c(C(=O)c2cnn(C)c2O)ccc(S(C)(=O)=O)c1C1=NOCC1`: the INH in series [11] was found to be 23 nM.
For `O=C1CCCC(=O)C1C(=O)c1ccc(C(F)(F)F)cc1[N+](=O)[O-]` [NITISINONE], the figures for the Activity with Rattus norvegicus [20], in the series with Homo sapiens [22] and with Homo sapiens [27] were more than 2 mM, 0.136 mM and 1.1 mM, respectively. For the same molecule, the T1/2 in the series with Homo sapiens [21] was 53 h; in the series listed under Rattus norvegicus [24], 63 h. The same molecule yielded an inhibition in [23] of 50%. The half-life in series [25] is 53 h; in series [26], 63 h.
In the case of `Cc1nc2c(C)cccc2cc1C(=O)C1C(=O)CC(C)CC1=O` (stereo unspecified), the Ki in [4] was 7 to 9 nM.
